Among the data in ChEMBL document CHEMBL5360525, “Design, synthesis and anti-tumor efficacy of novel phenyl thiazole/triazole derivatives as selective TrkA inhibitors” (Bioorg Med Chem, 2022) are IC50 and inhibition values, retold here.

The source made the active and inactive calls. No cut-off for these calls is given here.

One test concerns A549. The test is described as follows: Antiproliferative activity against human A549 cells assessed as reduction in cell viability for 72 hrs by MTT assay. The following applies: A549, 72 h.
Test [1] concerns KM12. The test is described as follows: Antiproliferative activity against human KM12 cells assessed as reduction in cell viability for 72 hrs by MTT assay. The following applies: KM12, 72 h. (Tetrazolium dyes change colour on reduction, which living cells bring about.)
Test [2] deals with High affinity nerve growth factor receptor (Homo sapiens, UniProt P04629). Briefly: Inhibition of TRKA (unknown origin) incubated for 1 hr by mobility shift assay.
Test [3] deals with NT-3 growth factor receptor (Homo sapiens, UniProt Q16288). The test is described as follows: Inhibition of TRKC (unknown origin) incubated for 1 hr by mobility shift assay.
Test [4] has as its target BDNF/NT-3 growth factors receptor (Homo sapiens, UniProt Q16620). Briefly: Inhibition of TRKB (unknown origin) incubated for 1 hr by mobility shift assay.
For test [5], the system named is KM12. Briefly: Inhibition of colony formation in human KM12 cells assessed as decrease in colony count at 75 nM incubated for 72 hrs by crystal violet staining based assay. In kind it is functional, cell-based.

Sequence of High affinity nerve growth factor receptor (P04629 whole entry): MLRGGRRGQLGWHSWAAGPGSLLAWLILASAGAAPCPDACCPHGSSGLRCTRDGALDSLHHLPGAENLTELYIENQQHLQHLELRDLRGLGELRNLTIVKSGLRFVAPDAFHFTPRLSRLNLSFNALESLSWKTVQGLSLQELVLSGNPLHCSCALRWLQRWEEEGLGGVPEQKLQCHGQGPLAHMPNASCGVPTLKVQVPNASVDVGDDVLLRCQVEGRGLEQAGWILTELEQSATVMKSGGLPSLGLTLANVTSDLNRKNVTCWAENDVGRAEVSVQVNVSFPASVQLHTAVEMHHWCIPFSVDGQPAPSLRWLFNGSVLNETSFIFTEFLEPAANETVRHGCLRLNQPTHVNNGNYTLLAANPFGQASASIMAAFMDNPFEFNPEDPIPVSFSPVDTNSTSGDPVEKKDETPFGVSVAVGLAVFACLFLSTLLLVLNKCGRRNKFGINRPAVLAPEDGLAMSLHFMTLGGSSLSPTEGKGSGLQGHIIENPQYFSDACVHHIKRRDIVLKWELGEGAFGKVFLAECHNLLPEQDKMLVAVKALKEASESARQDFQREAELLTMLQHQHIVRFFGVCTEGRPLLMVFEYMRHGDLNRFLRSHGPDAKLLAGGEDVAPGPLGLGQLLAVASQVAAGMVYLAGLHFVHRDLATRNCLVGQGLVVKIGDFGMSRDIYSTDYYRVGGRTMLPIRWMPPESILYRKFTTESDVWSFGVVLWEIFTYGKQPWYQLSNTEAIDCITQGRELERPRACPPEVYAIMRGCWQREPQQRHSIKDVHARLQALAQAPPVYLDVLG
Sequence of NT-3 growth factor receptor (Q16288 whole entry): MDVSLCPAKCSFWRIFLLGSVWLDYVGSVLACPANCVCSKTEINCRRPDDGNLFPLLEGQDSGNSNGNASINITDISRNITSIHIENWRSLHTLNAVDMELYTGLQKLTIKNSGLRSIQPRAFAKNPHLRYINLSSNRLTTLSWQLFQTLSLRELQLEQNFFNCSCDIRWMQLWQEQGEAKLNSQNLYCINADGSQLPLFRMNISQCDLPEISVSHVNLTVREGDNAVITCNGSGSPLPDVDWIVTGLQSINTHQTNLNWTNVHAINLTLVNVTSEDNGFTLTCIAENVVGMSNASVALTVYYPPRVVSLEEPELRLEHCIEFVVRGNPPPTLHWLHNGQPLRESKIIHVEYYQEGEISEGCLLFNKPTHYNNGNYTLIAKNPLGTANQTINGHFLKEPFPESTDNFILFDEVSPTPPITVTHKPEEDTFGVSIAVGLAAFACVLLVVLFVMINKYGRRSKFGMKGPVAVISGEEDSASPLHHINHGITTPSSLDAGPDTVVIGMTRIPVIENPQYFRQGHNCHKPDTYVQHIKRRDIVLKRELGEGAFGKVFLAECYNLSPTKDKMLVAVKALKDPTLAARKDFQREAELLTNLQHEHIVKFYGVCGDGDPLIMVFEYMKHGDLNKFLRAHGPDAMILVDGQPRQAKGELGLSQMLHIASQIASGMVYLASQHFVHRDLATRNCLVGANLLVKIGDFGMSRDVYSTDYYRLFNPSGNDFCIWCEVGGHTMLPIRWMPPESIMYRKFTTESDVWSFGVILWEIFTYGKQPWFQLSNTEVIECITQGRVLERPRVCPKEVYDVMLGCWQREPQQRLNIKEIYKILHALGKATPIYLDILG
Sequence of BDNF/NT-3 growth factors receptor (Q16620 whole entry): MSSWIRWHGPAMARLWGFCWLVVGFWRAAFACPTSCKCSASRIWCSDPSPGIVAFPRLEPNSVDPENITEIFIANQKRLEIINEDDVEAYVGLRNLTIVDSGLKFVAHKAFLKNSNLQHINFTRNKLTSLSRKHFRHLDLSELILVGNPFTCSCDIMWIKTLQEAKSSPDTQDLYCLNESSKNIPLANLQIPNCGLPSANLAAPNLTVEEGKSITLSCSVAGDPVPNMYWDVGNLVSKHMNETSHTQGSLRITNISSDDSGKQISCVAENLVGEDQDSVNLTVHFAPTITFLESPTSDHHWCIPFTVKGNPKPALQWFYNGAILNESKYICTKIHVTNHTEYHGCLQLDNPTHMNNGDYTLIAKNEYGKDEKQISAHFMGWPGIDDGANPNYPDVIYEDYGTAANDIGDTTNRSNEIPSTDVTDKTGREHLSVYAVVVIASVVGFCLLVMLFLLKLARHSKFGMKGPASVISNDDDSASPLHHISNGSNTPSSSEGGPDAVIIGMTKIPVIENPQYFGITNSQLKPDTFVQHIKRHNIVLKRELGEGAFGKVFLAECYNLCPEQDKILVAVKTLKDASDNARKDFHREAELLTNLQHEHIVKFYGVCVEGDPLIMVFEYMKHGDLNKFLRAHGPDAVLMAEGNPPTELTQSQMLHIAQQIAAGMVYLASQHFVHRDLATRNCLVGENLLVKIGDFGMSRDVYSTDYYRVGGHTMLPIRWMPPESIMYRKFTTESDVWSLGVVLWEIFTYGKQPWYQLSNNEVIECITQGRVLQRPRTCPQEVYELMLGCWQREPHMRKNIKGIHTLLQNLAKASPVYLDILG

For `O=C(Nc1cccc(-c2csc(N3CCOCC3)n2)c1)c1cc(F)cc(F)c1`, the IC50 is 0.27 µM in the test on A549 and 9.63 µM with KM12 [1].
As to `O=C(Nc1cccc(-c2csc(N3CCN(CCO)CC3)n2)c1)c1cc(F)cc(F)c1`, the concentration for half-maximal inhibition (IC50) in test [2] is > 0.1 µM; in the test on A549 it was 0.51 µM; in test [3], > 0.1 µM; in test [4], > 0.1 µM; in the test with KM12 [1], 7.25 µM.
Take `CN1CCN(c2ccc(C(=O)Nc3n[nH]c4ccc(Cc5cc(F)cc(F)c5)cc34)c(NC3CCOCC3)c2)CC1`: the inhibition entry with KM12 [5] was “Active”.
`CN1CCN(c2ccc(NCc3cn(-c4cccc(CNc5cc(F)cc(F)c5)c4)nn3)cc2C(=O)N(C)C)CC1`: the IC50 in the test on A549 was > 10 µM; in the test on KM12 [1] it was 1.71 µM.
Regarding `O=C(Nc1cccc(-c2csc(N3CCC[C@H]3CO)n2)c1)c1cc(F)cc(F)c1`, the IC50 in the test with A549 was found to be 0.39 µM; in the test with KM12 [1], 8.16 µM.
For `CN1CCN(c2ccc(NCc3cn(-c4cccc(CNc5cc(F)cc(F)c5)c4)nn3)cc2C(=O)N2CCCCC2)CC1` the same measures were > 10 µM and 0.76 µM.
As to `O=C(Nc1cccc(-n2cc(CNC3CC3)nn2)c1)c1cc(F)cc(F)c1`, the IC50 in the test on A549 is > 10 µM; in the test on KM12 [1] it was 5.21 µM.
In the same order, the values of `O=C(Nc1cccc(-n2cc(CN3CCCC3)nn2)c1)c1cc(F)cc(F)c1` are > 10 µM and 8.02 µM.
For `O=C(Nc1cccc(-n2cc(CN3CCS(=O)(=O)CC3)nn2)c1)c1cc(F)cc(F)c1` the same measures were > 10 µM and 12.2 µM.
For the compound `CN1CCN(c2ccc(NCc3cn(-c4cccc(CNc5cc(F)cc(F)c5)c4)nn3)cc2C(=O)N2CCCC2)CC1`, the IC50 with A549 is > 10 µM; in the test with KM12 [1] it was 0.95 µM.
For `CN(C)c1nc(-c2cccc(NC(=O)c3cc(F)cc(F)c3)c2)cs1` the same measures were 1.21 µM and 28.8 µM.
For `O=C(Nc1cccc(-n2cc(CNC3CCCC3)nn2)c1)c1cc(F)cc(F)c1` the same measures were > 10 µM and 3.83 µM.
In the case of `O=C(Nc1cccc(-c2csc(N3CCCC3)n2)c1)c1cc(F)cc(F)c1`, the IC50 came to 0.17 µM in the test with A549 and 16.5 µM in the test with KM12 [1].
For the compound `CN1CCN(c2nc(-c3cccc(NC(=O)c4cc(F)cc(F)c4)c3)cs2)CC1`, the IC50 with A549 came to 0.72 µM; in the test with KM12 [1], 14 µM.
In the same order, the values of `O=C(Nc1cccc(-c2csc(N3CCC(O)CC3)n2)c1)c1cc(F)cc(F)c1` are 0.21 µM and 7.57 µM.
As to `O=C(Nc1cccc(-n2cc(CN3CCSCC3)nn2)c1)c1cc(F)cc(F)c1`, the results for the half-inhibitory concentration (IC50) in the test on A549 and in the test with KM12 [1] were > 10 µM and 12.3 µM, respectively.
In the same order, the values of `O=C(Nc1cccc(-c2csc(NCCO)n2)c1)c1cc(F)cc(F)c1` are 0.55 µM and 17.1 µM.
For `CN(C)Cc1cn(-c2cccc(NC(=O)c3cc(F)cc(F)c3)c2)nn1` the same measures were > 10 µM and 17.5 µM.
`CN1CCN(c2ccc(NCc3cn(-c4cccc(NCc5cc(F)cc(F)c5)c4)nn3)cc2C(=O)N2CCOCC2)CC1`: the IC50 with A549 is > 10 µM; in the test with KM12 [1], 0.63 µM.

Usually IC50 stands for the concentration at which inhibition is half-maximal.
